Measured values taken from patent publication US12370183B2, “Compositions and methods for treating malaria” (Rutgers, The State University of New Jersey, priority 2020, dated 2025).
Read-outs that look alike come from different tables or passages of the source.

Key:
Type in all cases: cell-based
[1] = test system: 3D7 strain of Plasmodium falciparum; experiment: Potency in the 3D7 strain of Plasmodium falciparum (EC50); conditions: for EC50: Plasmodium falciparum
Source text: (§1) The present invention relates to methods of treating malaria with tetrahydrobenzonaphtyridine carboxanilide (TBN) derivatives and related pyrrolinones and hydrolysis products thereof. These compounds are active against Plasmodium falciparum strains that are resistant to multiple drugs currently on the market. The present invention further relates to novel compounds and pharmaceutical compositions comprising such compounds. The compounds have been synthesized and tested for their potency in the 3D7 strain of Plasmodium falciparum. Their cytotoxicity was also tested in the BJ human fibroblast line. No compounds show significant cytotoxicity.
(§2) A high-throughput screen performed against the Plasmodium parasite. About 8,000 compounds were screened. Each hit was tested against resistant P. falciparum variants K1, V1S, D10DD, ATP4 1247, and C2B. Potency against these assays assured that the chemotype acts through a mechanism distinct from that of halofantrine, chloroquine, mefloquine, pyrimethamine, proguanil, atovaquone, and (+)SJ733. The toxicity of the compounds was also measured by testing their lethality against a BJ cell line (human fibroblasts). No TBNs were toxic. A structure activity investigation was performed in order to improve the EC50 of the TBNs to the single-digit nanomolar range, as well as to increase the water solubility.
(§3) Substituents were installed at N−2 by using a variety of methods. Reductive alkylation (Abdel-Magid, A. F.; Mehrman, S. J. A Review on the Use of Sodium Triacetoxyborohydride in the Reductive Amination of Ketones and Aldehydes. Org. Process Res. Dev. 2006, 10 (5), 971-1031) was a dependable technique that produced over fifteen analogues. Conjugate additions and nucleophilic substitutions provided most of the others. A type of reductive alkylation that uses carboxylic acids instead of aldehydes (the Beller reduction) led to two analogues (Sorribes, I.; Junge, K.; Beller, M. Direct Catalytic N-Alkylation of Amines with Carboxylic Acids. J. Am. Chem. Soc. 2014, 136 (40), 14314-14319. Some of the compounds listed were synthesized through other means, or were derived from other TBNs. Compounds 66 and 128 were produced by the amidation of acids 132 and 133, which had the corresponding substitution already installed. TBNs 93, and 94 were produced from the Pfitzinger products formed from the condensation of isatin with (R)-1-(1-phenylethyl)piperidin-4-one (134) and (S)-1-(1-phenylethyl)piperidin-4-one (135), respectively.

in vitro = conditions: human
Source text: as §1, §2

[2] = test system: resistant P. falciparum variant K1; experiment: Potency against resistant P. falciparum variant K1 (EC50); conditions: Plasmodium falciparum, K1, read-out: K1 EC50 (μM)
Method: as §2, §3

[3] = 3D7, read-out: 3D7 Mean EC50 (μM)
[4] = 3D7, read-out: 3D7 Mean EC50 of the TBN (μM)

SMILES	EC50 [1, 3]	EC50 (in vitro)	EC50 [2]	improvement of potency by oxidation of the TBN to the pyrrolinone ([1]; 183 versus corresponding TBN 147)	EC50 ([1]; 3D7)	EC50 [1, 4]
O=C(Nc1ccc(Br)cc1)c1c2c(nc3cc(Cl)ccc13)CCN(CCc1ccccc1)C2 [Compound 171, N-(4-Bromophenyl)-7-chloro-2-phenethyl-1,2,3,4-tetrahydrobenzo[b][1,6]naphthyridine-10-carboxamide]	0.37 ± 0.26 µM	> 24000 nM				
O=C(Nc1ccc(Cl)cc1)c1c2c(nc3ccc(Cl)cc13)CCN(CCc1ccccc1)C2 [Compound 168, 8-Chloro-N-(4-chlorophenyl)-2-phenethyl-1,2,3,4-tetrahydrobenzo[b][1,6]naphthyridine-10-carboxamide]	< 0.0348 µM	> 24000 nM				
N#Cc1cc(N2C(=O)c3c4c(nc5cc(Cl)ccc35)CCN(CCc3ccccc3)C42)ccc1F (stereo not drawn) [Compound 184, 5-(8-Chloro-1-oxo-3-phenethyl-2a,3,4,5-tetrahydrobenzo[b]pyrrolo[4,3,2-de][1,6]naphthyridin-2(1H)-yl)-2-fluorobenzonitrile]	0.0437 ± 0.021 µM	> 24000 nM				
N#Cc1cc(NC(=O)c2c3c(nc4cc(Cl)ccc24)CCN(CCc2ccccc2)C3)ccc1F [Compound 169, 7-Chloro-N-(3-cyano-4-fluorophenyl)-2-phenethyl-1,2,3,4-tetrahydrobenzo[b][1,6]naphthyridine-10-carboxamide]	0.04 ± 0.032 µM	> 24000 nM				
O=C1c2c3c(nc4ccc(Cl)cc24)CCN(CCc2ccccc2)C3N1c1ccc(Cl)cc1 (stereo not drawn) [Compound 181, 9-Chloro-2-(4-chlorophenyl)-3-phenethyl-2a,3,4,5-tetrahydrobenzo[b]pyrrolo[4,3,2-de][1,6]naphthyridin-1(2H)-one]	0.0126 ± 0.002 µM	> 24000 nM				
COc1ccc(N2C(=O)c3c4c(nc5ccc(Cl)cc35)CCN(CCc3ccccc3)C42)cc1OC (stereo not drawn) [Compound 185, 9-Chloro-2-(3,4-dimethoxyphenyl)-3-phenethyl-2a,3,4,5-tetrahydrobenzo[b]pyrrolo[4,3,2-de][1,6]naphthyridin-1(2H)-one]	0.049 ± 0.016 µM	> 24000 nM				
O=C(Nc1ccc(F)c(F)c1)c1c2c(nc3ccccc13)CCN(CCO)C2 [Compound 120, N-(3,4-Difluorophenyl)-2-(2-hydroxyethyl)-1,2,3,4-tetrahydrobenzo[b][1,6]naphthyridine-10-carboxamide]	3.84 ± 2.08 µM		2.2 ± 0.268 µM			
O=C(Nc1ccc(F)c(F)c1)c1c2c(nc3ccccc13)CCN(CCCC(F)(F)F)C2 [Compound 108, N-(3,4-Difluorophenyl)-2-(4,4,4-trifluorobutyl)-1,2,3,4-tetrahydrobenzo[b][1,6]naphthyridine-10-carboxamide]	0.665 ± 0.734 µM		0.241 µM			
NCCN1CCc2nc3ccccc3c(C(=O)Nc3ccc(F)c(F)c3)c2C1 [Compound 129, 2-(2-Aminoethyl)-N-(3,4-difluorophenyl)-1,2,3,4-tetrahydrobenzo[b][1,6]naphthyridine-10-carboxamide]	14.5 ± 4.73 µM		9.46 ± 0.982 µM			
CN(C)CCCN1CCc2nc3ccccc3c(C(=O)Nc3ccc(F)c(F)c3)c2C1 [Compound 126, N-(3,4-Difluorophenyl)-2-(3-(dimethylamino)propyl)-1,2,3,4-tetrahydrobenzo[b][1,6]naphthyridine-10-carboxamide]	9.46 ± 2.17 µM		> 19.2 µM			
CCOCCN1CCc2nc3ccccc3c(C(=O)Nc3ccc(F)c(F)c3)c2C1 [Compound 103, N-(3,4-Difluorophenyl)-2-(2-ethoxyethyl)-1,2,3,4-tetrahydrobenzo[b][1,6]naphthyridine-10-carboxamide]	0.451 ± 0.416 µM		0.0391 µM			
O=C(Nc1ccc(F)c(F)c1)c1c2c(nc3ccccc13)CCN(Cc1ccc(F)cc1)C2 [Compound 107, N-(3,4-Difluorophenyl)-2-(4-fluorobenzyl)-1,2,3,4-tetrahydrobenzo[b][1,6]naphthyridine-10-carboxamide]	0.569 µM		0.401 µM			
CC(=O)O[C@H]1CO[C@H]2[C@@H]1OC[C@@H]2Oc1cccc(N2C(=O)c3c4c(nc5ccccc35)CCN(CCc3ccccc3)C42)c1 (stereo partly drawn) [Compound 183, (3S,3aR,6S,6aR)-6-(3-(1-Oxo-3-phenethyl-2a,3,4,5-tetrahydrobenzo[b]pyrrolo[4,3,2-de][1,6]naphthyridin-2(1H)-yl)phenoxy)hexahydrofuro[3,2-b]furan-3-yl Acetate]	0.0407 ± 0.012 µM	> 24000 nM		nearly a hundred-fold	0.0407 µM	
CC(c1ncccn1)N1CCc2nc3c(c(C(=O)Nc4ccc(F)c(F)c4)c2C1)CCCC3 (stereo not drawn) [Compound 139, N-(3,4-Difluorophenyl)-2-(1-(pyrimidin-2-yl)ethyl)-1,2,3,4,6,7,8,9-octahydrobenzo[b][1,6]naphthyridine-10-carboxamide]	0.849 ± 0.52 µM		0.266 ± 0.0462 µM			0.453 ± 0.238 µM
Cc1nc(CN2CCc3nc4ccccc4c(C(=O)Nc4ccc(F)c(F)c4)c3C2)cs1 [Compound 112, N-(3,4-Difluorophenyl)-2-((2-methylthiazol-4-yl)methyl)-1,2,3,4-tetrahydrobenzo[b][1,6]naphthyridine-10-carboxamide]	1.03 ± 0.549 µM		0.641 µM			
O=C(Nc1ccc(F)c(F)c1)c1c2c(nc3ccccc13)CCN(Cc1cccc(F)c1)C2 [Compound 100, N-(3,4-Difluorophenyl)-2-(3-fluorobenzyl)-1,2,3,4-tetrahydrobenzo[b][1,6]naphthyridine-10-carboxamide]	0.412 ± 0.291 µM		0.161 µM			
COC(=O)C(C)CN1CCc2nc3ccccc3c(C(=O)Nc3ccc(F)c(F)c3)c2C1 (stereo not drawn) [Compound 97, Methyl 3-(10-((3,4-difluorophenyl)carbamoyl)-3,4-dihydrobenzo[b][1,6]naphthyridin-2(1H)-yl)-2-methylpropanoate]	0.328 ± 0.17 µM		0.185 µM			
CC(c1ncccn1)N1CCc2nc3ccccc3c(C(=O)Nc3ccc(F)c(F)c3)c2C1 (stereo not drawn) [Compound 104, N-(3,4-Difluorophenyl)-2-(1-(pyrimidin-2-yl)ethyl)-1,2,3,4-tetrahydrobenzo[b][1,6]naphthyridine-10-carboxamide]	0.453 ± 0.238 µM		0.117 ± 0.0339 µM			
O=C(Nc1ccc(F)c(F)c1)c1c2c(nc3ccccc13)CCN(Cc1cccnc1)C2 [Compound 106, N-(3,4-Difluorophenyl)-2-(pyridin-3-ylmethyl)-1,2,3,4-tetrahydrobenzo[b][1,6]naphthyridine-10-carboxamide]	0.475 ± 0.163 µM		0.236 µM			
O=C(Nc1ccc(F)c(F)c1)c1c2c(nc3ccccc13)CCN(CCc1ccccc1)C2 [Compound 91, N-(3,4-Difluorophenyl)-2-phenethyl-1,2,3,4-tetrahydrobenzo[b][1,6]naphthyridine-10-carboxamide]	0.117 ± 0.102 µM		0.0839 µM			
O=C(Nc1ccc(F)c(F)c1)c1c2c(nc3c1CN(Cc1ccccc1)CC3)CCCC2 [Compound 137, 2-Benzyl-N-(3,4-difluorophenyl)-1,2,3,4,6,7,8,9-octahydrobenzo[b][1,6]naphthyridine-10-carboxamide]	0.0949 ± 0.0266 µM		0.279 µM			> 3.49 µM
CCN1CCc2nc3c(c(C(=O)Nc4ccc(F)c(F)c4)c2C1)CCCC3 [Compound 138, N-(3,4-Difluorophenyl)-2-ethyl-1,2,3,4,6,7,8,9-octahydrobenzo[b][1,6]naphthyridine-10-carboxamide]	0.715 ± 0.29 µM		0.64 µM			> 12.2 µM
CC(C)CN1CCc2nc3ccccc3c(C(=O)Nc3ccc(F)c(F)c3)c2C1 [Compound 95, N-(3,4-Difluorophenyl)-2-isobutyl-1,2,3,4-tetrahydrobenzo[b][1,6]naphthyridine-10-carboxamide]	0.154 ± 0.162 µM		0.121 µM			
O=C(O)CCN1CCc2nc3ccccc3c(C(=O)Nc3ccc(F)c(F)c3)c2C1 [Compound 131, 3-(10-((3,4-Difluorophenyl)carbamoyl)-3,4-dihydrobenzo[b][1,6]naphthyridin-2(1H)-yl)propanoic acid]	> 19.2 µM		> 19.2 µM			
C[C@@H](c1ccccc1)N1CCc2nc3ccccc3c(C(=O)Nc3ccc(F)c(F)c3)c2C1 [Compound 94, (S)—N-(3,4-Difluorophenyl)-2-(1-phenylethyl)-1,2,3,4-tetrahydrobenzo[b][1,6]naphthyridine-10-carboxamide]	0.154 ± 0.0285 µM		0.148 µM			
O=C(Nc1ccc(F)c(F)c1)c1c2c(nc3ccccc13)CCN(Cc1ccncc1)C2 [Compound 111, N-(3,4-Difluorophenyl)-2-(pyridin-4-ylmethyl)-1,2,3,4-tetrahydrobenzo[b][1,6]naphthyridine-10-carboxamide]	0.983 ± 0.133 µM		0.647 µM			
